Experimental findings from ChEMBL document CHEMBL5321287, “Discovery, Synthesis, and Evaluation of Novel Dual Inhibitors of a Vascular Endothelial Growth Factor Receptor and Poly(ADP-Ribose) Polymerase for BRCA Wild-Type Breast Cancer Therapy” (J Med Chem, 2023) are described below.

Usually IC50 stands for the concentration that gives 50% inhibition.

One experiment deals with Vascular endothelial growth factor receptor 2 (Homo sapiens, UniProt P35968). Nature of the experiment: Inhibition of VEGFR2 (unknown origin) by Z'-Lyte kinase assay.
Chain of Vascular endothelial growth factor receptor 2 (P35968 whole entry): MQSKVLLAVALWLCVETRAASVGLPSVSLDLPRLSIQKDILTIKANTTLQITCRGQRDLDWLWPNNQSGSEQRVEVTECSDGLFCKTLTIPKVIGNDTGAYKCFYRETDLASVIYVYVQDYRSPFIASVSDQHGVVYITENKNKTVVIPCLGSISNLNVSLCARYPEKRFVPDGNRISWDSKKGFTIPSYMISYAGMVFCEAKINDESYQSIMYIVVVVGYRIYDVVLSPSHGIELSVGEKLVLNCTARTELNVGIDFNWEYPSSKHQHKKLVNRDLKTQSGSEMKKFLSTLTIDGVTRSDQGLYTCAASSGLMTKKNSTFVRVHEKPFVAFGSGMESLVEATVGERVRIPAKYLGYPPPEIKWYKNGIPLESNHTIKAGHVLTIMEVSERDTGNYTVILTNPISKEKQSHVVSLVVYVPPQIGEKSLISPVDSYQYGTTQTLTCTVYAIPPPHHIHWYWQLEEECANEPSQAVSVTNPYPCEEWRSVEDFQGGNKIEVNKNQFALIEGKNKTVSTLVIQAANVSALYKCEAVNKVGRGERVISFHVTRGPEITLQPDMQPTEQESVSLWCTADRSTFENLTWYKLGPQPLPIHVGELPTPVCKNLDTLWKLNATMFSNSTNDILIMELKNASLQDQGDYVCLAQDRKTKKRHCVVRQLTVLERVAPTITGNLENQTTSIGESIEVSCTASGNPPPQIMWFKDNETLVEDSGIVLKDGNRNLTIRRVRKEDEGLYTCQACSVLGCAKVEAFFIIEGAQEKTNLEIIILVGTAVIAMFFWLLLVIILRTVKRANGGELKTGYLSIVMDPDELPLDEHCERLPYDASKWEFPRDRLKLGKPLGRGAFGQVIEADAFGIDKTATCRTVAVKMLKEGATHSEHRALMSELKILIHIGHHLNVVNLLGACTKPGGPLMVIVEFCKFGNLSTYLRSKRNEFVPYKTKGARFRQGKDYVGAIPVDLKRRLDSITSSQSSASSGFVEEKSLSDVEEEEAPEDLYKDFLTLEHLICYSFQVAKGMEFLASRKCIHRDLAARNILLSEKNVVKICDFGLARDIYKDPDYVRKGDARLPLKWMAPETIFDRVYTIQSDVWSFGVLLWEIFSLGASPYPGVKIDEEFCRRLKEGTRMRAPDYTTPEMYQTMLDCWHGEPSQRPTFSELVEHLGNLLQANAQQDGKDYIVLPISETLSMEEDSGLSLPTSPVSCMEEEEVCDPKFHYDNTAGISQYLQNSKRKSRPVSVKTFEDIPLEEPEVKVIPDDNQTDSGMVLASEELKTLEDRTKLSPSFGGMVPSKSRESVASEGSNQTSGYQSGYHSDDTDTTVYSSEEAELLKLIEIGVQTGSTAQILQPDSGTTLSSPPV
Turning to `Cc1c2ccc(N(C)c3cc(C(F)(F)F)nc(Nc4ccc(C(=O)Nc5nc6c(C(N)=O)cccc6[nH]5)cc4)n3)cc2nn1C`, the IC50 was > 10000 nM.
On the same count and under the same terms, for `COc1ccc(-c2nc3cc(F)c(F)cc3[nH]2)cc1Nc1nccc(N(C)c2ccc3c(C)n(C)nc3c2)n1` the value was 200 nM.
Consider `Cc1cc(Nc2nccc(N(C)c3ccc4c(C)n(C)nc4c3)n2)cnc1-c1nc2c(C(N)=O)cccc2[nH]1`, for which the IC50 was found to be 235 nM.
As to `CN(c1ccnc(Nc2ccc(-c3nc4c(C(N)=O)cccc4[nH]3)cc2)n1)c1cc(C(C)(C)C)n(C)n1`, the IC50 is > 10000 nM.
As to `COc1cc(N(C)c2ccc3c(C)n(C)nc3c2)nc(Nc2ccc(-c3nc4c(C(N)=O)cccc4[nH]3)cc2)n1`, the IC50 is > 10000 nM.
With `CN(c1ccc(S(C)(=O)=O)cc1)c1ccnc(Nc2ccc(-c3nc4c(C(N)=O)cccc4[nH]3)cc2)n1`, the IC50 is > 10000 nM.
On to `Cc1cnc(Nc2ccc(-c3nc4c(C(N)=O)cccc4[nH]3)cc2)nc1N(C)c1ccc2c(C)n(C)nc2c1`, for which the IC50 was > 10000 nM.
In turn, `CC(C)c1ccc(N(C)c2ccnc(Nc3ccc(-c4nc5cc(F)c(F)cc5[nH]4)cc3)n2)cc1` returned an IC50 of 501 nM.
As for `CN(c1ccc(N2CCOCC2)c(F)c1)c1ccnc(Nc2ccc(C(=O)Nc3nc4ccccc4[nH]3)cc2)n1`, the IC50 amounted to 728 nM.
On the same count and under the same terms, for `CS(=O)(=O)N1CCN(c2ccnc(Nc3ccc(-c4nc5c(C(N)=O)cccc5[nH]4)cc3)n2)CC1` the value was > 10000 nM; for `Cc1cc(N(C)c2ccc3c(C)n(C)nc3c2)nc(Nc2ccc(-c3nc4c(C(N)=O)cccc4[nH]3)cc2)n1`, > 10000 nM.
Compound `Cc1c2ccc(N(C)c3ccnc(Nc4ccc(-c5nc6c(C(N)=O)cccc6[nH]5)c(C(F)(F)F)c4)n3)cc2nn1C` returned an IC50 of 267 nM.
With `Cc1c2ccc(N(C)c3nc(Nc4ccc(-c5nc6c(C(N)=O)cccc6[nH]5)cc4)nc4ccsc34)cc2nn1C`, the IC50 is > 10000 nM.
The compound `Cc1c2ccc(N(C)c3ccnc(Nc4ccc(-c5nc6ccccc6[nH]5)c(Cl)c4)n3)cc2nn1C` had an IC50 of 188 nM.
`COc1ccc(-c2nc3c(C(N)=O)cccc3[nH]2)cc1Nc1nccc(N(C)c2ccc3c(C)n(C)nc3c2)n1` showed an IC50 of 266 nM.
Turning to `Cc1ccc(Nc2nccc(N(C)c3ccc4c(C)n(C)nc4c3)n2)cc1-c1nc2ccccc2[nH]1`, half-maximal inhibition (IC50) was put at 171 nM.
Turning to `CN(c1ccc2ncccc2c1)c1ccnc(Nc2ccc(-c3nc4c(C(N)=O)cccc4[nH]3)cc2)n1`, the IC50 worked out at 659 nM.
As to `Cc1c2ccc(N(C)c3ccnc(Nc4cccc(-c5nc6cc(F)c(F)cc6[nH]5)c4)n3)cc2nn1C`, the 50% inhibitory concentration (IC50) is 190 nM.
Turning to `Cc1c2ccc(N(C)c3ccnc(Nc4ccc(-c5nc6c(C(N)=O)cccc6[nH]5)cc4F)n3)cc2nn1C`, the IC50 was determined as 254 nM.
For the compound `NC(=O)c1cccc2[nH]c(-c3ccc(Nc4nccc(N5CCN(C(=O)c6ccccc6)CC5)n4)cc3)nc12`, the IC50 is > 10000 nM.
For the compound `CN1CCN(C2CCN(c3ccnc(Nc4ccc(-c5nc6c(C(N)=O)cccc6[nH]5)cc4)n3)CC2)CC1`, the IC50 is > 10000 nM.

In a further experiment the target is Poly [ADP-ribose] polymerase 1 (Homo sapiens, UniProt P09874). Nature of the experiment: Inhibition of PARP1 (unknown origin).
Chain of Poly [ADP-ribose] polymerase 1 (P09874 whole entry): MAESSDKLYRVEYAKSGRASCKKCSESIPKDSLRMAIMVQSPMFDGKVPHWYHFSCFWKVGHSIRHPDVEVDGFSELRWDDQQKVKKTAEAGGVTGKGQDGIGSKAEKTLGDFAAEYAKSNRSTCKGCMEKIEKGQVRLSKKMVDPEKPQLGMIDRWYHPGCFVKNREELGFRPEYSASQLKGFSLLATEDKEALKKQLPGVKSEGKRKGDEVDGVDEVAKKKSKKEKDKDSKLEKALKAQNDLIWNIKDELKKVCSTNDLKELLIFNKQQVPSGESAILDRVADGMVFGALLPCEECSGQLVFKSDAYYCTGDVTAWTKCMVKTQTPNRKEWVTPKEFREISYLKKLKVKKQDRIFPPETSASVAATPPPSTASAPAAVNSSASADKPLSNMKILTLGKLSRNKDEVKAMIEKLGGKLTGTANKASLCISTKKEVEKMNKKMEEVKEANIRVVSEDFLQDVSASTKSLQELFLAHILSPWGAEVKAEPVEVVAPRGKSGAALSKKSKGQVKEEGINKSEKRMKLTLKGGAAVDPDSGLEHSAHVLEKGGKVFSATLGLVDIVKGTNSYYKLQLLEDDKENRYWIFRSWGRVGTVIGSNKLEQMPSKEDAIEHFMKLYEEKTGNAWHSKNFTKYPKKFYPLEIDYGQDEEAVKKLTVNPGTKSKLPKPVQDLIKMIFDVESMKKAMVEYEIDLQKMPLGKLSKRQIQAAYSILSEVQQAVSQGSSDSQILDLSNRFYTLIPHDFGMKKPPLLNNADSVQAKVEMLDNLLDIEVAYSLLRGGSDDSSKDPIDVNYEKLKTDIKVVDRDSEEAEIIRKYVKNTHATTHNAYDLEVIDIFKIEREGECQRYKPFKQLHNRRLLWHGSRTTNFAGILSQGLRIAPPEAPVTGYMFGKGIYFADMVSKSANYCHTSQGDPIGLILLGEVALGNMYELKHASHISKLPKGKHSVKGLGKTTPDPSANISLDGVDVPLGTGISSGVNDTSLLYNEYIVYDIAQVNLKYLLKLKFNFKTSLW
With `Cc1cc(Nc2nccc(N(C)c3ccc4c(C)n(C)nc4c3)n2)cnc1-c1nc2c(C(N)=O)cccc2[nH]1`, it took 150 nM to reach half-maximal inhibition (IC50).
For `COc1cc(N(C)c2ccc3c(C)n(C)nc3c2)nc(Nc2ccc(-c3nc4c(C(N)=O)cccc4[nH]3)cc2)n1`, the IC50 was determined as 79.6 nM.
On the same count and under the same terms, the result for `CN(c1ccc(N2CCOCC2)c(F)c1)c1ccnc(Nc2ccc(C(=O)Nc3nc4ccccc4[nH]3)cc2)n1` reads > 10000 nM.
In turn, `Cc1cc(N(C)c2ccc3c(C)n(C)nc3c2)nc(Nc2ccc(-c3nc4c(C(N)=O)cccc4[nH]3)cc2)n1` had an IC50 of 85.2 nM.
Take `Cc1c2ccc(N(C)c3ccnc(Nc4ccc(-c5nc6c(C(N)=O)cccc6[nH]5)c(C(F)(F)F)c4)n3)cc2nn1C`: half-maximal inhibition (IC50) required 164 nM.
Still for that read-out and setting: for `Cc1c2ccc(N(C)c3ccnc(Nc4ccc(-c5nc6ccccc6[nH]5)c(Cl)c4)n3)cc2nn1C` the value was > 10000 nM.
`COc1ccc(-c2nc3c(C(N)=O)cccc3[nH]2)cc1Nc1nccc(N(C)c2ccc3c(C)n(C)nc3c2)n1` showed an IC50 of 39.4 nM.
In turn, `Cc1c2ccc(N(C)c3ccnc(Nc4cccc(-c5nc6cc(F)c(F)cc6[nH]5)c4)n3)cc2nn1C` came in with an IC50 of 647 nM.
As for `Cc1c2ccc(N(C)c3ccnc(Nc4ccc(-c5nc6c(C(N)=O)cccc6[nH]5)cc4F)n3)cc2nn1C`, the concentration for half-maximal inhibition (IC50) turned out to be 118 nM.
For the compound `NC(=O)c1cccc2[nH]c(-c3ccc(Nc4nccc(N5CCN(C(=O)c6ccccc6)CC5)n4)cc3)nc12`, half-maximal inhibition (IC50) was put at 128 nM.

In a further experiment the test system is MDA-MB-231. Nature of the experiment: Antiproliferative activity against human MDA-MB-231 cells assessed as cell growth inhibition.
With `Cc1cc(Nc2nccc(N(C)c3ccc4c(C)n(C)nc4c3)n2)cnc1-c1nc2c(C(N)=O)cccc2[nH]1`, the IC50 is 8.91 µM.
On the same count and under the same terms, for `COc1cc(N(C)c2ccc3c(C)n(C)nc3c2)nc(Nc2ccc(-c3nc4c(C(N)=O)cccc4[nH]3)cc2)n1` the value was > 10 µM; for `CN(c1ccc(N2CCOCC2)c(F)c1)c1ccnc(Nc2ccc(C(=O)Nc3nc4ccccc4[nH]3)cc2)n1`, > 10 µM.
Take `Cc1cc(N(C)c2ccc3c(C)n(C)nc3c2)nc(Nc2ccc(-c3nc4c(C(N)=O)cccc4[nH]3)cc2)n1`: the IC50 was > 10 µM.
In the case of `Cc1c2ccc(N(C)c3ccnc(Nc4ccc(-c5nc6ccccc6[nH]5)c(Cl)c4)n3)cc2nn1C`, the IC50 was > 10 µM.
Still for that read-out and setting: for `COc1ccc(-c2nc3c(C(N)=O)cccc3[nH]2)cc1Nc1nccc(N(C)c2ccc3c(C)n(C)nc3c2)n1` the value was > 10 µM.
On to `Cc1c2ccc(N(C)c3ccnc(Nc4cccc(-c5nc6cc(F)c(F)cc6[nH]5)c4)n3)cc2nn1C`, for which the IC50 was determined as 2.3 µM.
Regarding `Cc1c2ccc(N(C)c3ccnc(Nc4ccc(-c5nc6c(C(N)=O)cccc6[nH]5)cc4F)n3)cc2nn1C`, the concentration for half-maximal inhibition (IC50) turned out to be 9.34 µM.
As for `NC(=O)c1cccc2[nH]c(-c3ccc(Nc4nccc(N5CCN(C(=O)c6ccccc6)CC5)n4)cc3)nc12`, the 50% inhibitory concentration (IC50) is > 10 µM.

Another experiment deals with MCF7. Nature of the experiment: Antiproliferative activity against human MCF7 cells assessed as cell growth inhibition.
As to `Cc1cc(Nc2nccc(N(C)c3ccc4c(C)n(C)nc4c3)n2)cnc1-c1nc2c(C(N)=O)cccc2[nH]1`, the IC50 was > 10 µM.
As to `COc1cc(N(C)c2ccc3c(C)n(C)nc3c2)nc(Nc2ccc(-c3nc4c(C(N)=O)cccc4[nH]3)cc2)n1`, the IC50 is > 10 µM.
In the case of `CN(c1ccc(N2CCOCC2)c(F)c1)c1ccnc(Nc2ccc(C(=O)Nc3nc4ccccc4[nH]3)cc2)n1`, the IC50 is > 10 µM.
As for `Cc1cc(N(C)c2ccc3c(C)n(C)nc3c2)nc(Nc2ccc(-c3nc4c(C(N)=O)cccc4[nH]3)cc2)n1`, the IC50 is > 10 µM.
As for `Cc1c2ccc(N(C)c3ccnc(Nc4ccc(-c5nc6c(C(N)=O)cccc6[nH]5)c(C(F)(F)F)c4)n3)cc2nn1C`, the IC50 is > 10 µM.
Same read-out and setting: for `Cc1c2ccc(N(C)c3ccnc(Nc4ccc(-c5nc6ccccc6[nH]5)c(Cl)c4)n3)cc2nn1C` the value was > 10 µM; for `COc1ccc(-c2nc3c(C(N)=O)cccc3[nH]2)cc1Nc1nccc(N(C)c2ccc3c(C)n(C)nc3c2)n1`, > 10 µM; for `Cc1c2ccc(N(C)c3ccnc(Nc4cccc(-c5nc6cc(F)c(F)cc6[nH]5)c4)n3)cc2nn1C`, 7.2 µM.
In the case of `Cc1c2ccc(N(C)c3ccnc(Nc4ccc(-c5nc6c(C(N)=O)cccc6[nH]5)cc4F)n3)cc2nn1C`, the IC50 is > 10 µM.
In the case of `NC(=O)c1cccc2[nH]c(-c3ccc(Nc4nccc(N5CCN(C(=O)c6ccccc6)CC5)n4)cc3)nc12`, the IC50 is > 10 µM.
